Measured values as given in patent publication US7230020B2, “11β-hydroxysteroid dehydrogenase inhibitors” (priority 2003, dated 2007).

What was measured:
[1] = target: T1, Human 11β HSD1 (Homo sapiens, UniProt P28845); experiment: biochemical; type: biochemical; settings: Lineweaver-Burke plot, RIA detection, buffer 3, 10 μg/well microsomal protein, 30 min (FIG. 20); read-out: apparent Km
T1 construct: human hepatic microsomes were obtained from XenoTech, product H0610/Lot 0210078; tissue XenoTech H0610/Lot 0210078; host or cells: human liver (hepatic microsomes)
T1 sequence (P28845 whole entry): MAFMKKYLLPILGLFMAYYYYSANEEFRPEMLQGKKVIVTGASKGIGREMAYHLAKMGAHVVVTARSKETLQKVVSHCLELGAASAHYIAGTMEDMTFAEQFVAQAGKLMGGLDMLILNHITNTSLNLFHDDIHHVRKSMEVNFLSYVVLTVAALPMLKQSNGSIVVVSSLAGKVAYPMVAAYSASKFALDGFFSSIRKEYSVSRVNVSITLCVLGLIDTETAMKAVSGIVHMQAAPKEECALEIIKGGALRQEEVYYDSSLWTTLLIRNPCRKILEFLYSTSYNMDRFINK
Description: Standard Operating Procedure for the 11β-Hydroxysteroid Dehydrogenase Type 1 cortisol Radioimmunoassay (11β HSD1 Cortisol RIA).
30 mM Tris-HCL, pH 7.2 containing 1 mM EDTA.
50 mM Tris-HCL, pH 8, containing 0.1 M NaCl and 0.1% gelatin.
Prepare 10 mM stock solutions in 100% DMSO at 100 times the required assay concentration. Dilute into assay buffer 1 in 25. Also dilute neat DMSO 1 in 25 into assay buffer for controls.
Dilute this 1 in 50 into assay buffer.
Prepare NADPH as a 1.8 mg/ml solution in assay buffer.
Mix these 3solutions 1:1:1 to make a solution of sufficient volume for 25 μl additions to each sample. Add 0.5 μCi tritiated cortisone per 25 μl and mix the solution well.
Dilute stock 20 mg/ml solution 1 in 100 with assay buffer.
Dilute stock antibody solution to 17 μg/ml in antibody binding buffer.
Make a 20 mg/ml solution in antibody binding buffer and chill on ice.
To a u-bottom polypropylene 96 well plate add: • 25 μl compound dilution or diluted DMSO to controls, NSB's and blanks • 10 μl 1 mM GA in DMSO (enzyme stop solution) to blanks • 25 μl substrate mixture to all samples • 50 μl diluted microsomes to all samples • Incubate plate for 30 min at 37° C. shaking p0 Add 10 μl enzyme stop solution to all wells except the blanks • Add 100 μl antibody solution to all wells except the NSB's, add antibody binding buffer to these wells • Incubate at 37° C. for 1 h • Chill plate on ice for 15 min • Add 50 μl/well charcoal solution and mix with an 8-channel pipette (4-5 aspirations) • Chill the plate on ice • Centrifuge at 4° C., 2000×g for 15 min • Transfer 100 μl supernatant into an Optiplate, also add 25 μl substrate mixture to 2 empty wells to indicate counting efficiency • Add 200 μl Microscint-40 to all wells and count on a Topcount Radioimmunoassay
The 11β HSD1 enzyme assay was carried out following the standard operating procedure described above in u-bottom polypropylene 96 well plates or 1.5 ml Eppendorf tubes as indicated for each experiment. Subsequent to stopping the enzyme reaction, 100 μl antibody prepared in buffer 3 unless otherwise indicated was added to test samples and 100 μl buffer 3 was added to the NSB samples. The samples were incubated for 1 hour at 37° C. and the chilled on ice for 15 mins. Dextran coated charcoal (50 μl/sample) prepared to the indicated concentration in buffer 3 was added and the samples were mixed (vortex for tubes and aspiration 5 times with an 8-channel pipette for 96 well plates) and chilled for a further 10 min. The samples were centrifuged at 2000×g for 15 min at 4° C. to pellet the charcoal. Aliquots of the supernatant (100 μl) were transferred to an Optiplate and counted on the Topcount in 150-200 μl Microscint 40. In some experiments, aliquots of supernatant were transferred to scintillation vials and counted on the Tricarb LSC in 5 ml Ultima Gold scintillant.

[2] = target: T2, human hepatic microsomal 11β HSD1 (Homo sapiens, UniProt P28845); type: biochemical; settings: Lineweaver-Burke plot, 10 μg microsomal protein, 30 min at 37° C., Buffer 1 (FIG. 6); read-out: apparent Km for cortisone
T2 construct: human hepatic microsomes were obtained from XenoTech, product H0610/Lot 0210078; tissue XenoTech H0610/Lot 0210078; host or cells: human liver (hepatic microsomes)
T2 sequence (P28845 whole entry): as above
Description: Assay of Human and Rat Hepatic Microsomal 11β-HSD1 Activity using a TLC Separation of Substrate from Product
The assay was carried out in Buffer 2 and the cortisone concentration used was 2 μM containing 0.5 μCi per incubation ^3H-cortisone. Rat and human hepatic microsomes were tested at concentrations ranging from 400 μg to 50 μg microsomal protein per incubation in a final incubation volume of 100 μl in glass tubes. Buffer was substituted for microsomal protein for blanks. Samples were incubated for 1 h in a shaking water bath at 37° C. and the assay was stopped by the addition of 1 ml ethyl acetate. To correct for recovery, 50 μl ^14C-cortisol (approximately 4000 DPM per tube) was added to the samples followed by 200 μl 0.05% CaCl2. […] The upper organic phase was removed into clean tubes and dried down. […] DPM were measured on a TriCarb liquid scintillation counter using a dual label programme. Recovery was determined from the DPM obtained in 50 μl ^14C-cortisol solution which was counted with the samples.
In the next test, the same assay method was followed except that only human hepatic microsomes were examined and the concentration range of these was from 3.7 μg per sample to 100 μg per sample. The samples were incubated for 60 min, 45 min, 30 min or 15 min in a shaking water bath at 37° C. and were stopped, extracted and the substrate and product were separated as detailed above. […]

melting point	Compound	Km [1]	Km [2]
163 to 166 °C	COc1ccc(C(=O)Nc2ccc3c(c2)CCCC3=O)cc1	–	–
222 to 223 °C	COc1ccc(C(=O)Nc2ccc(C(C)=O)cc2)cc1	–	–
217 to 219 °C	O=C(Nc1ccc2c(c1)CCC2=O)c1ccc(-c2ccccc2)cc1	–	–
150 to 153 °C	O=C(c1ccccc1)c1ccc(NC(=O)c2cc(Cl)ccc2Cl)cc1	–	–
168 to 170 °C	CCCc1ccc(C(=O)Nc2ccc3c(c2)CCCC3=O)cc1	–	–
152 to 154 °C	COc1cccc(C(=O)Nc2ccc(C(C)=O)cc2)c1	–	–
184 °C	CCCc1ccc(C(=O)Nc2ccc3sc(C)nc3c2Cl)cc1	–	–
181 to 184 °C	CCCc1ccc(C(=O)Nc2ccc3c(c2)CCC3=O)cc1	–	–

Continued, compound first:

Compound	melting point	Km [1]	Km [2]
CCCc1ccc(S(=O)(=O)Nc2ccc(OC)nc2)cc1	93 to 94 °C	–	–
CCCc1ccc(S(=O)(=O)NCc2ccccn2)cc1	109 °C	–	–
CC1Nc2cc(NC(=O)c3ccc(-c4ccccc4)cc3)ccc2N1C (stereo not shown)	272 to 274 °C	–	–
COc1ccc(C(=O)Nc2ccc(C(=O)c3ccccc3)cc2)cc1	171 to 174 °C	–	–
Cc1nc2c(Cl)c(NC(=O)c3cc(Cl)cc(Cl)c3)ccc2s1	252 to 253 °C	–	–
COc1cccc(CC(=O)Nc2ccc3sc(C)nc3c2Cl)c1	147 to 148 °C	–	–
COc1cccc(C(=O)Nc2ccc3sc(C)nc3c2Cl)c1	177 to 179 °C	–	–
COc1ccc(C(=O)NCCc2cccs2)cc1	109 to 111 °C	–	–
C[C@]12CCC(=O)C=C1CC[C@@H]1[C@@H]2C(=O)C[C@@]2(C)[C@H]1CC[C@]2(O)C(=O)CO [cortisone, Cortisone]	–	0.7 µM	0.66 µM
COC(=O)c1cc2cc(NS(=O)(=O)c3cccc(Cl)c3C)ccc2o1	168 to 168.4 °C	–	–
